Results published in patent publication US9428519B2, “Acylated derivative of homoharringtonine, preparation method therefor, and application thereof” (HANGZHOU BENSHENG PHARMACEUTICAL CO., LTD., priority 2011, dated 2016).
In brackets after ≈: the same amount, converted by molar mass.

Assays:
[1] = system: RPMI8226 (multiple myeloma); assay: MTT growth inhibition of multiple myeloma cells, 72 h; assay type: cell-based, human
Protocol: Multiple myeloma and lymphoma cell lines: RPMI8226 (multiple myeloma), purchased from Fuxiang Bio-tech Co. Ltd., Shanghai, China.
(§1) Obtaining 6000 well-growing leukemia cells and inoculating them into wells of a 96-well cell culture plate. The culture medium is the 1640 cell culture medium containing 10% fetal bovine serum. After adding the homoharringtonine derivatives of different concentrations and mixing uniformly, placing the plate in a carbon dioxide cell incubator (5% CO2) at 37° C. and incubated for 72 hours. Then the viable cell concentration is determined by the MTT method. In this experiment, the cell viability in control group (not treated with any compound) is set as 100%. On such basis, the cell viability (%) after treatment and the 50% inhibiting concentration of the compound for the leukemia cell growth at 72 hours (IC50 value of 72 hours) are calculated.

[2] = system: H9 (acute lymphoblastic leukemia, ALL); assay: MTT growth inhibition of leukemia cells, 72 h; assay type: cell-based, human
Source text: (§2) Leukemia cell lines: leukemia cell lines: K562/adr (drug-resistant, chronic myeloid leukemia, CML), NB4 (acute promyelocytic leukemia, AML), Kasumi-1 (acute myeloid leukemia M2 type, AML-M2), Jurkat (acute lymphoblastic leukemia, ALL), all of which are donated by Cancer Research Institute of Zhejiang University, China; and H9 (acute lymphoblastic leukemia, ALL), which is purchased from China Center for Type Culture Collection (CCTCC).
(§3) Reagents: The standard sample of homoharringtonine (HHT) is purchased from Taihua Natural Plant Pharmaceutical Co., Ltd., Shaanxi, China, the homoharringtonine derivatives of the present invention.
as §1

[3] = system: NB4 (acute promyelocytic leukemia, AML); assay: MTT growth inhibition of leukemia cells, 72 h; assay type: cell-based, human
Source text: as §2, §3, §1

[4] = system: Jurkat (acute lymphoblastic leukemia, ALL); assay: MTT growth inhibition of leukemia cells, 72 h; assay type: cell-based, human
Source text: as §2, §3, §1

[5] = system: K562/adr (drug-resistant, chronic myeloid leukemia, CML); assay: MTT growth inhibition of leukemia cells, 72 h; assay type: cell-based, human
Source text: as §2, §3, §1

[6] = system: Kasumi-1 (acute myeloid leukemia M2 type, AML-M2); assay: MTT growth inhibition of leukemia cells, 72 h; assay type: cell-based, human
Source text: as §2, §3, §1

A549 (human lung cancer) = assay: MTT growth inhibition of human solid tumor cells, 72 h; assay type: cell-based
Protocol: (§4) Human solid tumor cell lines: Hep-2 (laryngeal carcinoma), A549 (human lung cancer), CaES-17 (esophageal cancer cell), PC-3 (prostate cancer), CNE (nasopharyngeal carcinoma cell), and SK-OV-3 (ovarian cancer cell), all of which are purchased from China Center For Type Culture Collection; RKO (human colon adenocarcinoma cell), MGC 803 (human gastric cancer cell), MG63 (osteosarcoma) and U87 MG (malignant glioma cell), all of which are purchased from Fuxiang Bio-tech Co. Ltd., Shanghai, China; PANC-1 (pancreatic cancer), Huh7 (human liver cancer cell), Becap37 (human breast cancer cell), and Hela (human cervical cancer cell), all of which are donated by Cancer Research Institute of Zhejiang University, China.
(§5) Obtaining 4000 well-growing human solid tumor cells and inoculating them into wells of a 96-well cell culture plate. The culture medium is DMEM High Glucose cell culture medium containing 10% fetal bovine serum. The plate is placed in a carbon dioxide cell incubator (5% CO2) at 37° C. and incubated for 24 hours. After adding the homoharringtonine derivatives of different concentration and mixing uniformly, the plate is placed in a carbon dioxide cell incubator (5% CO2) at 37° C. and incubated for 72 hours. Then the viable cell concentration is determined by the MTT method and the cell viability (%) after drug treatment is calculated. In this experiment, the cell viability of control group (not treated with any compound) is set as 100%.

PC-3 (prostate cancer) = assay: as above; assay type: cell-based
Protocol: as §4, §5

MG63 (osteosarcoma) = assay: as above; assay type: cell-based
Protocol: as §4, §5

[7] = system: Huh7 (human liver cancer cell); assay: as above; assay type: cell-based
Protocol: as §4, §5

[8] = system: U87 MG (malignant glioma cell); assay: as above; assay type: cell-based
Protocol: as §4, §5

[9] = system: RKO (human colon adenocarcinoma cell); assay: as above; assay type: cell-based; conditions: MTT
Protocol: as §4, §5

[10] = system: Hela (human cervical cancer cell); assay: as above; assay type: cell-based
Protocol: as §4, §5

[11] = system: CNE (nasopharyngeal carcinoma cell); assay: as above; assay type: cell-based
Protocol: as §4, §5

[12] = system: Becap37 (human breast cancer cell); assay: as above; assay type: cell-based
Protocol: as §4, §5

[13] = system: CaES-17 (esophageal cancer cell); assay: as above; assay type: cell-based
Protocol: as §4, §5

[14] = system: Hep-2 (laryngeal carcinoma); assay: as above; assay type: cell-based
Protocol: as §4, §5

[15] = system: MGC 803 (human gastric cancer cell); assay: as above; assay type: cell-based
Protocol: as §4, §5

[16] = system: PANC-1 (pancreatic cancer); assay: as above; assay type: cell-based
Protocol: as §4, §5

[17] = system: SK-OV-3 (ovarian cancer cell); assay: as above; assay type: cell-based
Protocol: as §4, §5

COC(=O)C[C@](O)(CCCC(C)(C)OC(=O)Cc1ccccc1)C(=O)O[C@@H]1C(OC)=C[C@]23CCCN2CCc2cc4c(cc2[C@H]13)OCO4 [BS-HH-074]
IC50 ([1]; Homo sapiens, RPMI-8226, MTT): 0.003 mg/L (≈ 0.00452 µM) | IC90 ([1]; Homo sapiens, RPMI-8226, MTT): 0.015 mg/L (≈ 0.0226 µM) | IC50 ([2]; Homo sapiens, MTT): 0.004 mg/L (≈ 0.00603 µM) | IC90 ([2]; Homo sapiens, MTT): 0.01 mg/L (≈ 0.0151 µM) | improvement of anti-H9 activity compared with homoharringtonine ([2]; vs HHT): more than 2 fold | IC50 ([3]; Homo sapiens, MTT): 0.003 mg/L (≈ 0.00452 µM) | IC90 ([3]; Homo sapiens, MTT): 0.007 mg/L (≈ 0.0105 µM) | improvement of anti-NB4 activity compared with homoharringtonine ([3]; vs HHT): more than 2 fold | IC50 ([4]; Homo sapiens, Jurkat): 0.0038 mg/L (≈ 0.00572 µM) | IC90 ([4]; Homo sapiens, Jurkat): ≥ 16 mg/L | IC50 ([5]; Homo sapiens, K562/Adr, MTT): 0.007 mg/L (≈ 0.0105 µM) | IC90 ([5]; Homo sapiens, K562/Adr, MTT): 14.1 mg/L (≈ 21.2 µM) | improvement of anti-K562/adr activity compared with homoharringtonine ([5]; vs HHT): more than 5 fold | IC50 ([6]; Homo sapiens, Kasumi 1, MTT): 0.001 mg/L (≈ 0.00151 µM) | IC90 ([6]; Homo sapiens, Kasumi 1, MTT): 0.005 mg/L (≈ 0.00753 µM) | improvement of anti-Kasumi-1 activity compared with homoharringtonine ([6]; vs HHT): more than 5 fold | IC50 (A549 (human lung cancer); Homo sapiens, A549): 0.007 mg/L (≈ 0.0105 µM) | IC90 (A549 (human lung cancer); Homo sapiens, A549): > 16 mg/L | IC50 (PC-3 (prostate cancer); Homo sapiens, MTT): 0.0077 mg/L (≈ 0.0116 µM) | IC90 (PC-3 (prostate cancer); Homo sapiens, MTT): > 16 mg/L | anti-PC-3 effect relative to homoharringtonine (PC-3 (prostate cancer); vs HHT): more than 10 fold | IC50 (MG63 (osteosarcoma); Homo sapiens, MG-63, MTT): 0.006 mg/L (≈ 0.00904 µM) | IC90 (MG63 (osteosarcoma); Homo sapiens, MG-63, MTT): 1.18 mg/L (≈ 1.78 µM) | anti-MG63 effect relative to homoharringtonine (MG63 (osteosarcoma); vs HHT): substantially superior | IC50 ([7]; Homo sapiens, Huh-7): 0.003 mg/L (≈ 0.00452 µM) | IC90 ([7]; Homo sapiens, Huh-7): 0.05 mg/L (≈ 0.0753 µM) | IC50 ([8]; Homo sapiens, U-87 MG): 0.012 mg/L (≈ 0.0181 µM) | IC90 ([8]; Homo sapiens, U-87 MG): 0.08 mg/L (≈ 0.121 µM) | IC50 ([9]; Homo sapiens): 0.002 mg/L (≈ 0.00301 µM) | IC90 ([9]; Homo sapiens): 0.006 mg/L (≈ 0.00904 µM) | IC50 ([10]; Homo sapiens, HeLa, MTT): 0.0034 mg/L (≈ 0.00512 µM) | IC90 ([10]; Homo sapiens, HeLa, MTT): 12.6 mg/L (≈ 19 µM) | anti-Hela effect relative to homoharringtonine ([10]; vs HHT): > 5.6 fold | IC50 ([11]; Homo sapiens, MTT): 0.0014 mg/L (≈ 0.00211 µM) | IC90 ([11]; Homo sapiens, MTT): > 16 mg/L | anti-CNE effect relative to homoharringtonine ([11]; vs HHT): > 27 fold | IC50 ([12]; Homo sapiens): 0.003 mg/L (≈ 0.00452 µM) | IC90 ([12]; Homo sapiens): 8.38 mg/L (≈ 12.6 µM) | IC50 ([13]; Homo sapiens, CaEs17): 0.015 mg/L (≈ 0.0226 µM) | IC90 ([13]; Homo sapiens, CaEs17): 16 mg/L (≈ 24.1 µM) | IC50 ([14]; Homo sapiens, HEp-2): 0.006 mg/L (≈ 0.00904 µM) | IC90 ([14]; Homo sapiens, HEp-2): > 16 mg/L | IC50 ([15]; Homo sapiens, MGC-803): 0.006 mg/L (≈ 0.00904 µM) | IC90 ([15]; Homo sapiens, MGC-803): 0.055 mg/L (≈ 0.0829 µM) | IC50 ([16]; Homo sapiens, PANC-1, MTT): 0.014 mg/L (≈ 0.0211 µM) | IC90 ([16]; Homo sapiens, PANC-1, MTT): > 16 mg/L | IC50 ([17]; Homo sapiens, SK-OV-3, MTT): 0.027 mg/L (≈ 0.0407 µM) | IC90 ([17]; Homo sapiens, SK-OV-3, MTT): > 16 mg/L

COC(=O)C[C@](O)(CCCC(C)(C)OC(=O)C1CCCCC1)C(=O)O[C@@H]1C(OC)=C[C@]23CCCN2CCc2cc4c(cc2[C@H]13)OCO4 [BS-HH-076]
IC50 RPMI8226 ([1]; MTT): 0.007 mg/L (≈ 0.0107 µM) | IC90 RPMI8226 ([1]; MTT): 0.034 mg/L (≈ 0.0518 µM) | IC50 H9 ([2]; MTT): 0.01 mg/L (≈ 0.0152 µM) | IC90 H9 ([2]; MTT): 0.04 mg/L (≈ 0.061 µM) | IC50 NB4 ([3]; MTT): 0.009 mg/L (≈ 0.0137 µM) | IC90 NB4 ([3]; MTT): 0.022 mg/L (≈ 0.0335 µM) | IC50 Jurkat [4]: 0.006 mg/L (≈ 0.00915 µM) | IC90 Jurkat [4]: 6.24 mg/L (≈ 9.52 µM) | IC50 K562/adr ([5]; MTT): 0.02 mg/L (≈ 0.0305 µM) | IC90 K562/adr ([5]; MTT): 0.21 mg/L (≈ 0.32 µM) | IC50 Kasumi-1 ([6]; MTT): 0.006 mg/L (≈ 0.00915 µM) | IC90 Kasumi-1 ([6]; MTT): 0.023 mg/L (≈ 0.0351 µM) | IC50 A549 (A549 (human lung cancer)): 0.03 mg/L (≈ 0.0457 µM) | IC90 A549 (A549 (human lung cancer)): >16 mg/L | IC50 PC-3 (PC-3 (prostate cancer); MTT): 0.03 mg/L (≈ 0.0457 µM) | IC90 PC-3 (PC-3 (prostate cancer); MTT): >16 mg/L | IC50 MG 63 (MG63 (osteosarcoma); MTT): 0.022 mg/L (≈ 0.0335 µM) | IC90 MG 63 (MG63 (osteosarcoma); MTT): 1.72 mg/L (≈ 2.62 µM) | IC50 Huh7 [7]: 0.008 mg/L (≈ 0.0122 µM) | IC90 Huh7 [7]: 0.096 mg/L (≈ 0.146 µM) | IC50 U87 MG [8]: 0.009 mg/L (≈ 0.0137 µM) | IC90 U87 MG [8]: 0.067 mg/L (≈ 0.102 µM) | IC50 RKO [9]: 0.008 mg/L (≈ 0.0122 µM) | IC90 RKO [9]: 0.02 mg/L (≈ 0.0305 µM) | IC50 Hela ([10]; MTT): 0.011 mg/L (≈ 0.0168 µM) | IC90 Hela ([10]; MTT): 10.25 mg/L (≈ 15.6 µM) | IC50 CNE ([11]; MTT): 0.029 mg/L (≈ 0.0442 µM) | IC90 CNE ([11]; MTT): >16 mg/L | IC50 Becap37 [12]: 0.01 mg/L (≈ 0.0152 µM) | IC90 Becap37 [12]: 6.4 mg/L (≈ 9.76 µM) | IC50 CaES-17 [13]: 0.039 mg/L (≈ 0.0595 µM) | IC90 CaES-17 [13]: 16 mg/L (≈ 24.4 µM) | IC50 Hep-2 [14]: 0.012 mg/L (≈ 0.0183 µM) | IC90 Hep-2 [14]: >16 mg/L | IC50 MGC 803 [15]: 0.025 mg/L (≈ 0.0381 µM) | IC90 MGC 803 [15]: 0.098 mg/L (≈ 0.149 µM) | IC50 PANC-1 ([16]; MTT): 0.042 mg/L (≈ 0.064 µM) | IC90 PANC-1 ([16]; MTT): >16 mg/L | IC50 SK-OV-3 ([17]; MTT): 0.031 mg/L (≈ 0.0473 µM) | IC90 SK-OV-3 ([17]; MTT): >16 mg/L
